This experiment has as its target human M4 receptor (Homo sapiens (Human), UniProt P08173). Nature of the experiment: Radioligand (tritiated N-methylscopolamine) binding assay, M4. The settings on record: Ki against the M4 receptor; membranes from CHO cells expressing human M4; tritiated N-methylscopolamine 1.5 nM; read-out: Ki. Put shortly: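 Test compound (12 concentrations, 10 μM to […]), 1.5 nM radioligand and CHO receptor membranes were co-incubated at 37 °C for 90 minutes in 50 mM HEPES buffer with 100 mM NaCl, 5 mM MgCl2 and 1 mM EDTA, pH 7.4. Membranes were then harvested onto polyethylenimine-pretreated filters and radioactivity was counted to determine Ki.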

Sequence of human M4 receptor (P08173 whole entry): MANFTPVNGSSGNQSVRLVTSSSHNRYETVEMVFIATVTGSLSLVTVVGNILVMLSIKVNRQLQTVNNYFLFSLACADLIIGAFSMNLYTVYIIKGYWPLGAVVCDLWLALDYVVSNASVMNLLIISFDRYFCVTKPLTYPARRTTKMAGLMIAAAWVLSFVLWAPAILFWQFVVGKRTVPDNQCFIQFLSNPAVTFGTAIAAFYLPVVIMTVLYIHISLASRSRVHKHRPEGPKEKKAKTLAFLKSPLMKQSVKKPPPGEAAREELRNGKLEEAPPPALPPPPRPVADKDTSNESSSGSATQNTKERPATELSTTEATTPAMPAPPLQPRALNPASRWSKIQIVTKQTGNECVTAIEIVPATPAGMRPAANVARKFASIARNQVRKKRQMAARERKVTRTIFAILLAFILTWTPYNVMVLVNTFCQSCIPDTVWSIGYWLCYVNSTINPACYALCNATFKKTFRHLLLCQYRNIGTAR

In general, Ki refers to a dissociation constant, usually derived from enzyme kinetics or from competition with a known ligand. Consider `COc1cccc(N2CCN(C(=O)NCCC3CCN(Cc4ccccc4)CC3)[C@H](C)C2)n1` [4-51, (2R)-N-[2-(1-benzylpiperidin-4-yl)ethyl]-4-(6-methoxypyridin-2-yl)-2-methylpiperazine-1-carboxamide], for which the Ki is 100 to 1000 nM.

In the case of `C[C@@H]1CN(c2ncc(C#N)cn2)C[C@H](C)N1C(=O)NCCC1CCN(C2Cc3ccccc3C2)CC1` [21-4, (2R,6S)-4-(5-cyanopyrimidin-2-yl)-N-{2-[l-(2,3-dihydro-1H-inden-2-yl)piperidin-4-yl]ethyl}-2,6-dimethylpiperazine-1-carboxamide], the Ki was 10 to 100 nM.

Take `O=C(NCCC1CCN(Cc2ccccc2)CC1)[C@@H]1CCN(c2ccc(OC(F)(F)F)cc2)C1` [10-72, (3R)-N-[2-(1-benzylpiperidin-4-yl)ethyl]-1-[4-(trifluoromethoxy)phenyl]pyrrolidine-3-carboxamide]: the Ki lay in the range of 100 to 1000 nM.

Consider `CC(C)N(C)C(=O)c1cnc(N2C[C@@H](C)N(C(=O)NCCC3CCN(Cc4ccccc4)CC3)[C@@H](C)C2)nc1` [27-3], for which the Ki was in the range of 100 to 1000 nM.

Consider `CC(C)NC(=O)c1cnc(N2CCN(C(=O)NCCC3CCN(Cc4ccccc4)CC3)[C@H](C)C2)nc1` [27-15], for which the Ki is 100 to 1000 nM.

Consider `O=C(NCCC1CCN(Cc2ccccc2)CC1)[C@H]1CCN(c2ccc(OC(F)(F)F)cc2)C1` [10-71, (3S)-N-[2-(1-benzylpiperidin-4-yl)ethyl]-1-[4-(trifluoromethoxy)phenyl]pyrrolidine-3-carboxamide], for which the Ki lay in the range of 100 to 1000 nM.

As to `Cc1nc(-c2ccc(C(F)(F)F)cc2)sc1C(=O)NCCC1CCN(Cc2ccccc2)CC1` [9-32, N-[2-(1-benzylpiperidin-4-yl)ethyl]-4-methyl-2-[4-(trifluoromethyl)phenyl]-1,3-thiazole-5-carboxamide], the Ki was 10 to 100 nM.

Regarding `O=C(NCCC1CCN(Cc2ccccc2)CC1)N1CCN(c2ncccn2)CC1` [8-29, N-[2-(1-benzylpiperidin-4-yl)ethyl]-4-(pyrimidin-2-yl)piperazine-1-carboxamide], the Ki is 100 to 1000 nM.

Consider `C[C@@H]1CN(c2nc(C#N)cc(C#N)n2)CCN1C(=O)NCCC1CCN(Cc2ccccc2)CC1` [4-38, (2R)-N-[2-(1-benzylpiperidin-4-yl)ethyl]-4-(4,6-dicyanopyrimidin-2-yl)-2-methylpiperazine-1-carboxamide], for which the Ki was in the range of 10 to 100 nM.

As to `N#Cc1ccc(N2CCC(C(=O)NCCC3CCN(Cc4ccc(O)cc4)CC3)CC2)nc1` [11-17, 1-(5-cyanopyridin-2-yl)-N-(2-{1-[(4-hydroxyphenyl)methyl]piperidin-4-yl}ethyl)piperidine-4-carboxamide], the Ki is 100 to 1000 nM.

On to `C[C@@H]1CN(c2cncnc2)CCN1C(=O)NCCC1CCN(Cc2ccccc2)CC1` [22-19], for which the Ki was 10 to 100 nM.

Take `Cc1c(C(=O)NCCC2CCN(Cc3ccccc3)CC2)cnc2cc(-c3ccc(C#N)cc3)nn12` [18-3]: the Ki was in the range of 100 to 1000 nM.

On to `C[C@@H]1CN(c2ncc(C(=O)NC3CCC3)cn2)C[C@H](C)N1C(=O)NCCC1CCN(Cc2ccccc2)CC1` [27-6], for which the Ki lay within 100 to 1000 nM.

As for `O=C(NCCC1CCN(Cc2ccccc2)CC1)Nc1ccc(Oc2ccccc2)cc1` [8-41, 3-[2-(1-benzylpiperidin-4-yl)ethyl]-1-(4-phenoxyphenyl)urea], the Ki was 100 to 1000 nM.

Regarding `Cc1cc(N2CCN(C(=O)NCCC3CCN(Cc4ccccc4)CC3)[C@H](C)C2)ccc1C#N` [4-4, (2R)-N-[2-(1-benzylpiperidin-4-yl)ethyl]-4-(4-cyano-3-methylphenyl)-2-methylpiperazine-1-carboxamide], the Ki is 100 to 1000 nM.

In the case of `COc1cccc(CN2CCC(CCNC(=O)C3CCN(c4ccc(OC(F)(F)F)cc4)CC3)CC2)n1` [11-30, N-(2-{l-[(6-methoxypyridin-2-yl)methyl]piperidin-4-yl}ethyl)-1-[4-(trifluoromethoxy)phenyl]piperidine-4-carboxamide], the Ki was in the range of 100 to 1000 nM.

For `N#Cc1cc(OC(F)(F)F)cc(N2CCC(O)(C(=O)NCCC3CCN(Cc4ccccc4)CC3)CC2)c1` [10-46, N-[2-(1-benzylpiperidin-4-yl)ethyl]-1-[3-cyano-5-(trifluoromethoxy)phenyl]-4-hydroxypiperidine-4-carboxamide], the Ki fell in the range of 10 to 100 nM.

Take `O=C(NCCC1CCN(Cc2ccccc2)CC1)C1CCN(c2cccc3c2OC(F)(F)O3)CC1` [10-45, N-[2-(1-benzylpiperidin-4-yl)ethyl]-1-(2,2-difluoro-2H-1,3-benzodioxol-4-yl)piperidine-4-carboxamide]: the Ki was in the range of 10 to 100 nM.

For the molecule `N#Cc1cc(N2CCC(C(=O)NCCC3(CO)CCN(Cc4ccccc4)CC3)CC2)ccc1F` [9-24, N-{2-[1-benzyl-4-(hydroxymethyl)piperidin-4-yl]ethyl}-1-(3-cyano-4-fluorophenyl)piperidine-4-carboxamide], the Ki was 10 to 100 nM.

`COc1cc(N2CCN(C(=O)NCCC3CCN(Cc4ccccc4)CC3)[C@H](C)C2)ccc1C#N` [22-28, (2R)-N-[2-(1-benzylpiperidin-4-yl)ethyl]-4-(4-cyano-3-methoxyphenyl)-2-methylpiperazine-1-carboxamide]: the Ki lay in the range of 10 to 100 nM.

Turning to `C[C@@H]1CN(c2cnc(C#N)cn2)CCN1C(=O)NCCC1CCN(Cc2ccccc2)CC1` [22-27], the Ki was 10 to 100 nM.

For the molecule `C[C@@H]1CN(c2ncc(C#N)cn2)C[C@H](C)N1C(=O)NCCC1CCN(CC23CC(C2)C3)CC1` [21-12], the Ki fell in the range of 100 to 1000 nM.

In the case of `O=C(NCCC1CCN(Cc2ccccc2)CC1)C1(O)CCN(c2cc(F)c(F)c(F)c2)CC1` [10-40, N-[2-(1-benzylpiperidin-4-yl)ethyl]-4-hydroxy-1-(3,4,5-trifluorophenyl)piperidine-4-carboxamide], the Ki was 10 to 100 nM.

Consider `CNC(=O)c1cnc(N2CCN(C(=O)NCCC3CCN(Cc4ccccc4)CC3)[C@H](C)C2)nc1` [27-10], for which the Ki lay within 100 to 1000 nM.

`CN(C(=O)c1ccc(Cl)c(-c2nc3ccccc3cc2C#N)c1)[C@@H]1CCN(C2CCCCC2)C1` [9-18, 4-chloro-3-(3-cyanoquinolin-2-yl)-N-[(3R)-1-cyclohexylpyrrolidin-3-yl]-N-methylbenzamide]: the Ki was in the range of 100 to 1000 nM.

Regarding `O=C(NCCC1CCN(Cc2ccccc2)CC1)N1CCN(c2cccc(C(F)(F)F)c2)CC1` [8-17, N-[2-(1-benzylpiperidin-4-yl)ethyl]-4-[3-(trifluoromethyl)phenyl]piperazine-1-carboxamide], the Ki fell in the range of 10 to 100 nM.

As to `C[C@@H]1CN(c2ncc(C(=O)NCCF)cn2)C[C@H](C)N1C(=O)NCCC1CCN(Cc2ccccc2)CC1` [27-7], the Ki is 100 to 1000 nM.

As to `C[C@@H]1CN(c2ccc(C(F)(F)F)nc2)CCN1C(=O)NCCC1CCN(Cc2ccccc2)CC1` [4-34, (2R)-N-[2-(1-benzylpiperidin-4-yl)ethyl]-2-methyl-4-[6-(trifluoromethyl)pyridin-3-yl]piperazine-1-carboxamide], the Ki fell in the range of 10 to 100 nM.

As to `COC1(C(=O)NCCC2CCN(Cc3ccccc3)CC2)CCN(c2ccccc2OC(F)(F)F)CC1` [10-75, N-[2-(1-benzylpiperidin-4-yl)ethyl]-4-methoxy-1-[2-(trifluoromethoxy)phenyl]piperidine-4-carboxamide], the Ki is 100 to 1000 nM.

`C[C@@H]1CN(c2ncc(C#N)cn2)C[C@H](C)N1C(=O)NCCC1CCN(CC2(C)COC2)CC1` [21-10]: the Ki was in the range of 100 to 1000 nM.

As for `O=C(NCCC1CCN(Cc2cccc(F)c2)CC1)c1ccc(OCc2ccccc2)cc1` [11-24, 4-(benzyloxy)-N-(2-{1-[(3-fluorophenyl)methyl]piperidin-4-yl}ethyl)benzamide], the Ki was 100 to 1000 nM.

For the molecule `CN(CCC1CC[N+](C)(Cc2ccccc2)CC1)C(=O)C1CCN(c2ccc(OC(F)(F)F)cc2)CC1` (stereo not shown) [9-42, 1-benzyl-1-methyl-4-[2-(N-methyl-1-{1-[4-(trifluoromethoxy)phenyl]piperidin-4-yl}formamido)ethyl]piperidin-1-ium], the Ki is 100 to 1000 nM.

For the molecule `COc1ccc(-c2cc3ncc(C(=O)NCCC4CCN(Cc5ccccc5)CC4)c(C)n3n2)cc1` [9-51, N-[2-(1-benzylpiperidin-4-yl)ethyl]-2-(4-methoxyphenyl)-7-methylpyrazolo[1,5-a]pyrimidine-6-carboxamide], the Ki lay in the range of 100 to 1000 nM.

As to `N#Cc1cc2ccccc2nc1-c1cc(C(=O)NCCC2CCN(Cc3ccccc3)CC2)ccc1Cl` [9-60, N-[2-(1-benzylpiperidin-4-yl)ethyl]-4-chloro-3-(3-cyanoquinolin-2-yl)benzamide], the Ki lay in the range of 100 to 1000 nM.

`COc1cc(C#N)cc(N2CCN(C(=O)NCCC3CCN(Cc4ccccc4)CC3)[C@H](C)C2)c1` [4-39, (2R)-N-[2-(1-benzylpiperidin-4-yl)ethyl]-4-(3-cyano-5-methoxyphenyl)-2-methylpiperazine-1-carboxamide]: the inhibition constant Ki was in the range of 10 to 100 nM.

As for `COc1nc(N2CCN(C(=O)NCCC3CCN(Cc4ccccc4)CC3)[C@H](C)C2)ncc1F` [4-27, (2R)-N-[2-(1-benzylpiperidin-4-yl)ethyl]-4-(5-fluoro-4-methoxypyrimidin-2-yl)-2-methylpiperazine-1-carboxamide], the Ki is 10 to 100 nM.

Consider `COc1ccc(N2CCC(C(=O)NCCC3CCN(Cc4ccccc4)CC3)CC2)cc1OC(F)(F)F` [10-33, N-[2-(1-benzylpiperidin-4-yl)ethyl]-1-[4-methoxy-3-(trifluoromethoxy)phenyl]piperidine-4-carboxamide], for which the Ki lay in the range of 10 to 100 nM.

As for `C[C@@H]1CN(c2ncc(C#N)cn2)C[C@H](C)N1C(=O)NCCC1CCN(Cc2ccc(B(O)O)cc2)CC1` [6-63, (4-{[4-(2-{[(2R,6S)-4-(5-cyanopyrimidin-2-yl)-2,6-dimethyl-piperazine-1-carbonyl]amino}ethyl)piperidin-1-yl]methyl}phenyl)boronic acid], the Ki fell in the range of 100 to 1000 nM.

As to `O=C(c1ccc(-c2cccs2)cc1)N(C1CC1)C1CCN(Cc2ccccc2)CC1` [9-53, N-(1-benzylpiperidin-4-yl)-N-cyclopropyl-4-(thiophen-2-yl)benzamide], the Ki fell in the range of 100 to 1000 nM.

“N-{2-[1-(2-hydroxy-1-phenylethyl)piperidin-4-yl]ethyl}-1-[4-(trifluoromethoxy)phenyl]piperidine-4-carboxamide [11-12]”: the Ki was 100 to 1000 nM.

Values taken from patent publication US11033539B2, “Compounds of formulas (VII), (VIII), (IX), (XI), (XII), (XIII), and (XIV) as muscarinic receptor 4(M4) antagonists for treating neurological diseases” (Neurocrine Biosciences, Inc., priority 2015, dated 2021).
